Measurements: PubChem BioAssay AID248 (DTP/NCI, 2004)
Values joined by “and” are separate entries in the source; they are usually repeats but may differ in a detail not shown here. Identical values can stand only once. Toxic doses and inconclusive results are not listed. No stated cut-off is given here; in the data, active means T/C of 150% or more; inactive means T/C below 125%.

System: L1210 leukemia ip in BDF1 mice, survival T/C
Assay: NCI In Vivo Anticancer Drug Screen. Data for tumor model L1210 Leukemia (intraperitoneal) in B6D2F1 (BDF1) mice
Details: endpoint: mean survival time, higher = longer survival
Method in brief: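 Tumor was transplanted into mice, which were then dosed with test compound or vehicle alone. Survival was recorded for each group, and the treated figure was expressed relative to the control figure.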

[1] = dose: 100.0 mg/kg/injection, schedule: Q01DX001 (ip), vehicle: Klucel (hydroxypropylcellulose) (HPC)
[2] = dose: 200.0 mg/kg/injection, schedule: Q01DX001 (ip), vehicle: Klucel (hydroxypropylcellulose) (HPC)
[3] = dose: 100.0 mg/kg/injection, schedule: Q01DX009 (ip), vehicle: Klucel (hydroxypropylcellulose) (HPC)
[4] = dose: 200.0 mg/kg/injection, schedule: Q01DX009 (ip), vehicle: Klucel (hydroxypropylcellulose) (HPC)
[5] = dose: 400.0 mg/kg/injection, schedule: Q01DX009 (ip), vehicle: Klucel (hydroxypropylcellulose) (HPC)
[6] = dose: 100.0 mg/kg/injection, schedule: Q01DX009 (ip), vehicle: saline with Tween-80
[7] = dose: 100.0 mg/kg/injection, schedule: Q04DX003 (ip), vehicle: saline with Tween-80
[8] = dose: 200.0 mg/kg/injection, schedule: Q01DX009 (ip), vehicle: saline with Tween-80
[9] = dose: 200.0 mg/kg/injection, schedule: Q04DX003 (ip), vehicle: saline with Tween-80
[10] = dose: 400.0 mg/kg/injection, schedule: Q01DX009 (ip), vehicle: saline with Tween-80
[11] = dose: 400.0 mg/kg/injection, schedule: Q04DX003 (ip), vehicle: saline with Tween-80
[12] = dose: 100.0 mg/kg/injection, schedule: Q04DX003 (ip), vehicle: Klucel (hydroxypropylcellulose) (HPC)
[13] = dose: 200.0 mg/kg/injection, schedule: Q04DX003 (ip), vehicle: Klucel (hydroxypropylcellulose) (HPC)
[14] = dose: 400.0 mg/kg/injection, schedule: Q04DX003 (ip), vehicle: Klucel (hydroxypropylcellulose) (HPC)
[15] = dose: 50.0 mg/kg/injection, schedule: Q01DX009 (ip), vehicle: saline with Tween-80

Measured: T/C

NC(CSSCC(NC(=O)CNC(=O)OCc1ccccc1)C(=O)O)C(=O)O (configuration not stated)
inactive: [1] 93 % of control | [2] 90 % of control | dose: 400.0 mg/kg/injection, schedule: Q01DX001 (ip), vehicle: Klucel (hydroxypropylcellulose) (HPC) 98 % of control

CCOC(=O)CC(C)=O.[Cu+2]
inactive: dose: 6.25 mg/kg/injection, schedule: Q01DX009 (ip), vehicle: saline 96 % of control | dose: 12.5 mg/kg/injection, schedule: Q01DX009 (ip), vehicle: saline 104 % of control | dose: 12.5 mg/kg/injection, schedule: Q04DX003 (ip), vehicle: Klucel (hydroxypropylcellulose) (HPC) 94 % of control | dose: 25.0 mg/kg/injection, schedule: Q01DX009 (ip), vehicle: saline 90 % of control | dose: 25.0 mg/kg/injection, schedule: Q04DX003 (ip), vehicle: Klucel (hydroxypropylcellulose) (HPC) 96 % of control

CC(C)CC(N)C(N)=O (configuration not stated)
inactive: dose: 12.5 mg/kg/injection, schedule: Q04DX002 (ip), vehicle: saline 107 % of control | dose: 25.0 mg/kg/injection, schedule: Q04DX002 (ip), vehicle: saline 100 % of control | dose: 50.0 mg/kg/injection, schedule: Q04DX002 (ip), vehicle: saline 107 % of control

S=P(NNc1ccccc1)(NNc1ccccc1)c1ccc(Cl)cc1
inactive: dose: 100.0 mg/kg/injection, schedule: Q04DX002 (ip), vehicle: gum acacia 89 % of control | dose: 200.0 mg/kg/injection, schedule: Q04DX002 (ip), vehicle: gum acacia 89 % of control | dose: 400.0 mg/kg/injection, schedule: Q04DX002 (ip), vehicle: gum acacia 92 % of control

COc1ccc(C)cc1NC(=O)c1ccc(Cl)cc1Cl
inactive: [3] 98 % of control | [4] 101 % of control | [5] 97 % of control

O=c1[nH]c(=O)n2ncnc2[nH]1
inactive: dose: 100.0 mg/kg/injection, schedule: Q04DX003 (ip), vehicle: saline 100 % of control | dose: 200.0 mg/kg/injection, schedule: Q04DX003 (ip), vehicle: saline 100 % of control | dose: 400.0 mg/kg/injection, schedule: Q04DX003 (ip), vehicle: saline 96 % of control

COc1ccc(/C(C)=C\C(=O)O)cc1
inactive: [6] 96 % of control | [7] 107 % of control | [8] 102 % of control | [9] 113 % of control | [10] 101 % of control | [11] 115 % of control

O=C(Nc1ccc(F)c([N+](=O)[O-])c1)Nc1ccccc1C(F)(F)F
inactive: [6] 90 % of control | [8] 96 % of control | [10] 97 % of control

O=[N+]([O-])c1ccc([N+](=O)[O-])c(Cl)c1
inactive: dose: 50.0 mg/kg/injection, schedule: Q01DX009 (ip), vehicle: Klucel (hydroxypropylcellulose) (HPC) 101 % of control | [3] 95 % of control | [7] 97 % of control | [9] 86 % of control

COc1ccc2c(n1)Sc1c(N)nc(N)nc1N2
inactive: [3] 103 % of control | [4] 103 % of control | [5] 88 % of control

Cc1ccc(Nc2nc(N)nc(N)c2N)c(C)c1
inactive: dose: 12.0 mg/kg/injection, schedule: Q01DX Z (ip), vehicle: saline 110 % of control

CCN(CC)CCNC(=O)c1ccc(N=Cc2cc(Br)ccc2O)cc1
inactive: [3] 98 % of control | [4] 96 % of control

CCCCCCCC/C=C\CCCCCCCCNP(=O)(OCCCCCCCCCCCC)OCCCCCCCCCCCC
inactive: dose: 100.0 mg/kg/injection, schedule: Q04DX002 (ip), vehicle: saline with Tween-80 101 % of control | dose: 400.0 mg/kg/injection, schedule: Q04DX002 (ip), vehicle: saline with Tween-80 86 % of control

COc1cc(N(CCCl)CCCl)ccc1C=Nc1ccccc1-n1ccnc1
inactive: dose: 68.8 mg/kg/injection, schedule: Q04DX002 (ip), vehicle: Klucel (hydroxypropylcellulose) (HPC) 102 % of control | dose: 137.5 mg/kg/injection, schedule: Q04DX002 (ip), vehicle: Klucel (hydroxypropylcellulose) (HPC) 91 % of control | dose: 275.0 mg/kg/injection, schedule: Q04DX002 (ip), vehicle: Klucel (hydroxypropylcellulose) (HPC) 102 % of control

O=C(O)/C(=C\c1ccc(Cl)cc1)c1ccc(Cl)cc1
inactive: [3] 104 % of control | [12] 95 % of control | [4] 89 % of control | [13] 91 % of control | [14] 95 % of control

CC(C)NC(=O)Nc1cccc(Cl)c1
inactive: dose: 100.0 mg/kg/injection, schedule: Q04DX003 (ip), vehicle: gum acacia 96 % of control | dose: 200.0 mg/kg/injection, schedule: Q04DX003 (ip), vehicle: gum acacia 94 % of control | dose: 400.0 mg/kg/injection, schedule: Q04DX003 (ip), vehicle: gum acacia 100 % of control

CCCCNC(=S)N/N=C/c1ccccn1
inactive: [12] 90 % of control | [13] 97 % of control

COC(CCCl)c1ccccc1 (configuration not stated)
inactive: [6] 101 % of control | [7] 100 % of control | [8] 100 % of control | [9] 96 % of control | [11] 91 % of control

CCOC(=O)C(CC(=O)O)=C1c2ccccc2-c2ccccc21
inactive: [1] 100 % of control | [3] 95 % of control and 102 % of control | dose: 100.0 mg/kg/injection, schedule: Q04DX002 (ip), vehicle: Klucel (hydroxypropylcellulose) (HPC) 95 % of control and 102 % of control | [2] 94 % of control | [4] 95 % of control and 96 % of control | dose: 200.0 mg/kg/injection, schedule: Q04DX002 (ip), vehicle: Klucel (hydroxypropylcellulose) (HPC) 96 % of control and 98 % of control

O=C(O)/C(Br)=C\c1cccc([N+](=O)[O-])c1
inactive: dose: 100.0 mg/kg/injection, schedule: Q01DX001 (ip), vehicle: saline 107 % of control | dose: 200.0 mg/kg/injection, schedule: Q01DX001 (ip), vehicle: saline 98 % of control | dose: 400.0 mg/kg/injection, schedule: Q01DX001 (ip), vehicle: saline 109 % of control

S=c1[nH]nc2n1NC(c1ccoc1)=NN2
inactive: dose: 25.0 mg/kg/injection, schedule: Q01DX009 (ip), vehicle: saline with Tween-80 96 % of control | [15] 95 % of control | [6] 97 % of control

CC1CN1CO (configuration not stated)
inactive: dose: 75.0 mg/kg/injection, schedule: Q01DX001 (ip), vehicle: saline 109 % of control

c1ccc(-c2cc3c(-c4ccccc4)c4ccccc4c(-c4ccccc4)c3cc2-c2ccccc2)cc1
inactive: [15] 96 % of control | [6] 96 % of control | [8] 108 % of control

CC(C)(C)c1ccc(N)cc1
inactive: dose: 12.5 mg/kg/injection, schedule: Q04DX003 (ip), vehicle: saline 106 % of control | dose: 25.0 mg/kg/injection, schedule: Q04DX003 (ip), vehicle: saline 95 % of control | dose: 50.0 mg/kg/injection, schedule: Q04DX003 (ip), vehicle: saline 98 % of control

CC(C)(C)NC(=O)NCc1cccc2ccccc12
inactive: dose: 100.0 mg/kg/injection, schedule: Q01DX009 (ip), vehicle: other 103 % of control | dose: 200.0 mg/kg/injection, schedule: Q01DX009 (ip), vehicle: other 95 % of control | dose: 400.0 mg/kg/injection, schedule: Q01DX009 (ip), vehicle: other 90 % of control

C=CCOCC(O)CN(C)c1ccccc1 (configuration not stated)
inactive: [3] 101 % of control | [12] 96 % of control | [4] 112 % of control | [13] 95 % of control | [5] 91 % of control | [14] 93 % of control
